Test system: lung gene expression
Assay: RNA sequencing of lung tissue (BLM/EL244 vs BLM)
Assay type: in vivo, mouse
Method: RNA quality was assessed using an Agilent TapeStation 4150 with the High Sensitivity […] ScreenTape (Agilent), according to the manufacturer’s protocols. For library preparation, the QuantSeq 3’mRNA-Seq Library Prep Kit (Lexogen) was used according to manufacturer’s instructions. Briefly, 500 ng of RNA from each sample was used for first-strand synthesis, followed by RNA template removal, and second-strand synthesis initiated by random primers. In-line barcodes were introduced at this step, and this was followed by magnetic bead-based purification. The resulting libraries were amplified for 15 cycles and re-purified, with quantity and quality assessed on a Qubit 4 Fluorometer with the Invitrogen Qubit dsDNA HS Assay and an Agilent Tapestation 4150 with the High Sensitivity D1000 assay kit, respectively. The quantified libraries were pooled equimolarly; 50ng of total library mix was used for Adapter Conversion PCR Amplification using the Universal Library Conversion Kit (App-A), Version: V1.0 (MGI Tech Co., Ltd.), according to the manufacturer’s instructions.
The quantity and quality of the purified adapter conversion PCR (AC-PCR) product were evaluated on a Qubit 4 Fluorometer with the Invitrogen Qubit dsDNA HS Assay and on an Agilent Tapestation 4150 with the High Sensitivity D1000 assay kit, respectively. This was followed by DNA denaturation, Single-Strand Circularisation, Enzymatic Digestion, Enzymatic Digestion Product Cleanup and Quality Control steps on 1 pmol of AC-PCR product, according to the Universal Library Conversion Kit (App-A) User Manual (Version: A3).
Finally, 60 fmol of ssCirDNA were used for DNB preparation and sequencing on a DNBSEQ-G400 platform at the BSRC Alexander Fleming Genomics Facility, using a G400 App-A FCS SE100 High-throughput Sequencing Set (MGI Tech Co., Ltd.), according to the manufacturer’s instructions.
Alignment of the FASTQ files was performed against the mouse genome build mm10 using a custom Bash script.[143] Read counting on the 3′ UTRs and differential expression analysis were conducted using the metaseqR2 bioconductor package.[144] Genes corresponding to the following biotypes were excluded: polymorphic_pseudogene, processed_transcript, pseudogene, IG_V_pseudogene, misc_RNA, IG_C_gene, IG_J_gene, IG_D_gene, IG_LV_gene, TR_V_gene, TR_V_pseudogene, TEC, and processed_pseudogene. Gene counts were normalized with DESEQ[145] through metaseqR2. Genes with more than 10 counts in at least 50% of the samples were kept for further processing. For differential expression analysis, the PANDORA algorithm[146] was used to estimate a meta p-value integrating the results from the DESEQ, DESEQ2,[147] edgeR,[148] limma,[149] NBPSeq,[150] and NOISeq[151] algorithms. All additional parameters were set to default values.
Pathway enrichment analysis was performed for the Gene Ontology Biological process (BP) and Molecular Function (MF) terms through GeneCodis 4.[152] The volcano plots, scatterplots, Venn diagrams, and dot plots were generated using the ggplot2 Bioconductor package.

O=C1NC(=O)C(Cc2ccc(OCCC3CCN(C(=O)OCc4cc(Cl)cc(Cl)c4)CC3)cc2)S1 (stereo not drawn) [EL244, 3,5-dichlorobenzyl 4-(2-(4-((2,4-dioxothiazolidin-5-yl)methyl)phenoxy)ethyl)piperidine-1-carboxylate]
Igfbp3 log2 nFC BLM/EL244 vs BLM (DEG Igfbp3, nFC: normalised fold change): 1.75
Igfbp6 log2 nFC BLM/EL244 vs BLM (DEG Igfbp6, nFC: normalised fold change): 1.68
Il6ra log2 nFC BLM/EL244 vs BLM (DEG Il6ra, nFC: normalised fold change): 0.84
log2 nFC BLM/EL244 vs BLM (DEG Ildr2): -1.32
Inmt log2 nFC BLM/EL244 vs BLM (DEG Inmt, nFC: normalised fold change): 1.34
Iqca log2 nFC BLM/EL244 vs BLM (DEG Iqca, nFC: normalised fold change): 0.87
log2 nFC BLM/EL244 vs BLM (DEG Iqgap3): -2.41
Itga2b log2 nFC BLM/EL244 vs BLM (DEG Itga2b, nFC: normalised fold change): 1.10
Itga8 log2 nFC BLM/EL244 vs BLM (DEG Itga8, nFC: normalised fold change): 0.88
log2 nFC BLM/EL244 vs BLM (DEG Itm2a): -1.25
Jdp2 log2 nFC BLM/EL244 vs BLM (DEG Jdp2, nFC: normalised fold change): 0.71
Kcne2 log2 nFC BLM/EL244 vs BLM (DEG Kcne2, nFC: normalised fold change): 1.32
log2 nFC BLM/EL244 vs BLM (DEG Kcnn4): -1.27
log2 nFC BLM/EL244 vs BLM (DEG Kdelr3): -1.25
log2 nFC BLM/EL244 vs BLM (DEG Kif14): -1.56
log2 nFC BLM/EL244 vs BLM (DEG Kif20a): -2.52
Klf3 log2 nFC BLM/EL244 vs BLM (DEG Klf3, nFC: normalised fold change): 0.69
Klf4 log2 nFC BLM/EL244 vs BLM (DEG Klf4, nFC: normalised fold change): 0.72
Klf9 log2 nFC BLM/EL244 vs BLM (DEG Klf9, nFC: normalised fold change): 0.85
Klf15 log2 nFC BLM/EL244 vs BLM (DEG Klf15, nFC: normalised fold change): 1.42
Klrc1 log2 nFC BLM/EL244 vs BLM (DEG Klrc1, nFC: normalised fold change): 1.38
Kndc1 log2 nFC BLM/EL244 vs BLM (DEG Kndc1, nFC: normalised fold change): 1.05
log2 nFC BLM/EL244 vs BLM (DEG Knstrn): -2.52
log2 nFC BLM/EL244 vs BLM (DEG Kntc1): -1.39
Krt79 log2 nFC BLM/EL244 vs BLM (DEG Krt79, nFC: normalised fold change): 1.75
log2 nFC BLM/EL244 vs BLM (DEG Lama1): -2.43
Ldb3 log2 nFC BLM/EL244 vs BLM (DEG Ldb3, nFC: normalised fold change): 1.52
Lncpint log2 nFC BLM/EL244 vs BLM (DEG Lncpint, nFC: normalised fold change): 1.06
Lrat log2 nFC BLM/EL244 vs BLM (DEG Lrat, nFC: normalised fold change): 1.15
Lrrc74b log2 nFC BLM/EL244 vs BLM (DEG Lrrc74b, nFC: normalised fold change): 1.02
log2 nFC BLM/EL244 vs BLM (DEG Ltbp2): -1.44
Ltbp4 log2 nFC BLM/EL244 vs BLM (DEG Ltbp4, nFC: normalised fold change): 0.81
log2 nFC BLM/EL244 vs BLM (DEG Lum): -1.32
Lyve1 log2 nFC BLM/EL244 vs BLM (DEG Lyve1, nFC: normalised fold change): 0.96
Map3k6 log2 nFC BLM/EL244 vs BLM (DEG Map3k6, nFC: normalised fold change): 0.95
Mapt log2 nFC BLM/EL244 vs BLM (DEG Mapt, nFC: normalised fold change): 0.89
log2 nFC BLM/EL244 vs BLM (DEG Mark1): -1.23
log2 nFC BLM/EL244 vs BLM (DEG Matk): -1.42
Mb log2 nFC BLM/EL244 vs BLM (DEG Mb, nFC: normalised fold change): 2.27
Mcf2l log2 nFC BLM/EL244 vs BLM (DEG Mcf2l, nFC: normalised fold change): 0.95
log2 nFC BLM/EL244 vs BLM (DEG Mcm5): -1.33
log2 nFC BLM/EL244 vs BLM (DEG Mdk): -1.34
Mettl7a1 log2 nFC BLM/EL244 vs BLM (DEG Mettl7a1, nFC: normalised fold change): 0.80
Mir29c log2 nFC BLM/EL244 vs BLM (DEG Mir29c, nFC: normalised fold change): 0.89
log2 nFC BLM/EL244 vs BLM (DEG Mir147): -1.44
Mir6899 log2 nFC BLM/EL244 vs BLM (DEG Mir6899, nFC: normalised fold change): 0.84
Mir6979 log2 nFC BLM/EL244 vs BLM (DEG Mir6979, nFC: normalised fold change): 1.18
log2 nFC BLM/EL244 vs BLM (DEG Mis18bp1): -1.46
Mmp9 log2 nFC BLM/EL244 vs BLM (DEG Mmp9, nFC: normalised fold change): 1.20
log2 nFC BLM/EL244 vs BLM (DEG Mmp12): -2.48
log2 nFC BLM/EL244 vs BLM (DEG Mmp14): -1.31
Mpp3 log2 nFC BLM/EL244 vs BLM (DEG Mpp3, nFC: normalised fold change): 1.65
log2 nFC BLM/EL244 vs BLM (DEG Ms4a7): -1.49
Ms4a4d log2 nFC BLM/EL244 vs BLM (DEG Ms4a4d, nFC: normalised fold change): 1.15
log2 nFC BLM/EL244 vs BLM (DEG Msr1): -1.44
Mybpc3 log2 nFC BLM/EL244 vs BLM (DEG Mybpc3, nFC: normalised fold change): 2.06
Mybphl log2 nFC BLM/EL244 vs BLM (DEG Mybphl, nFC: normalised fold change): 2.33
